{"source": "patent US11578077B2", "about": "“Spiro-oxazolones” (Hoffmann-La Roche Inc., priority 2013, dated 2023)"}
{"molecular_target": "human V1a receptor (Homo sapiens (Human), UniProt P37288)", "sequence (P37288 whole entry)": "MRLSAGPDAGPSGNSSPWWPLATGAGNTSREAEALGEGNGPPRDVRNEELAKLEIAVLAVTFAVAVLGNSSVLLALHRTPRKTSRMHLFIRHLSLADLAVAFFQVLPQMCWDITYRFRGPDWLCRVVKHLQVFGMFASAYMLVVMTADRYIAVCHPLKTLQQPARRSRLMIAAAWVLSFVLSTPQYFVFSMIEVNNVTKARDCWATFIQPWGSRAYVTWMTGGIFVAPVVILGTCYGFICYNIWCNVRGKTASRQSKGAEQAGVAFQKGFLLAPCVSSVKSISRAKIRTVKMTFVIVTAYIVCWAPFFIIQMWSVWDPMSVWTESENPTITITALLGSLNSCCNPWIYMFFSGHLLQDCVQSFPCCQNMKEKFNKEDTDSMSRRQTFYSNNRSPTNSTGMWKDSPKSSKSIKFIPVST", "experiment": "human V1a receptor binding studies (3H-Vasopressin, SPA beads)", "conditions": "membranes of HEK293 cells transiently transfected with human V1a receptor, Ki by Cheng-Prusoff", "experimental": "(§1) The human V1a receptor was cloned by RT-PCR from total human liver RNA. The coding sequence was subcloned in an expression vector after sequencing to confirm the identity of the amplified sequence. […] Cell membranes were prepared from HEK293 cells transiently transfected with the expression vector and grown in 20 liter fermenters with the following protocol.\n(§2) 50 g of cells are re-suspended in 30 ml freshly prepared ice cold Lysis buffer ([…] HEPES. 1 mM EDTA, 10 mM MgCl2 adjusted to pH=7.4+complete cocktail of protease inhibitor (Roche Diagnostics)). Homogenized with Polytron for 1 min and sonicated on ice for 2×2 minutes at 80% intensity (Vibracell sonicator). The preparation is centrifuged 20 min at 500 g at 4° C., the pellet is discarded and the supernatant centrifuged 1 hour at 43'000 g at 4° C. (19'000 rpm). The pellet is re-suspended in 12.5 ml Lysis buffer+12.5 ml Sucrose 20% and homogenized using a Polytron for 1-2 min. The protein concentration is determined by the Bradford method and aliquots are stored at −80° C. until use. For binding studies 60 mg Yttrium silicate SPA beads (Amersham) are mixed with an aliquot of membrane in binding buffer (50 mM Tris, 120 mM NaCl, 5 mM KCl, 2 mM CaCl2, 10 mM MgCl) for 15 minutes with mixing. 50 μl of bead/membrane mixture is then added to each well of a 96 well plate, followed by […] of 4 nM 3H-Vasopressin (American Radiolabeled Chemicals). For total binding measurement 100 μl of binding buffer are added to the respective wells, for non-specific binding 100 μl of […] cold vasopressin and for compound testing 100 μl of a serial dilution of each compound in 2% DMSO. The plate is incubated 1 h at room temperature, centrifuged 1 min at 1000 g and counted on a Packard Top-Count. Non-specific binding counts are subtracted from each well and data is normalized to the maximum specific binding set at 100%. To calculate an IC 50 the curve is fitted using a non-linear regression model (XLfit) and the Ki is calculated using the Cheng-Prussoff equation."}
{"smiles": "Cc1ccc2c(c1)C[C@]1(C2)OC(N2CCC3(CC2)OC(=O)c2ccccc23)=NC1=O", "note": "(stereo in doubt) [Example 24, (−)-1′-[5-methyl-4′-oxo-1,3-dihydro-4′H-spiro[indene-2,5′,-[1,3]oxazol]-2′-yl]-3H-spiro[2-benzofuran-1,4′-piperidin]-3-one]", "pKi hV1a": 8.6}
{"smiles": "O=C1N=C(N2CCC3(CC2)OCc2ccccc23)OC12Cc1ccccc1C2", "note": "[Example 1, 2′-(1′H,3H-spiro[2-benzofuran-1,4′-piperidin]-1′-yl)-1,3-dihydro-4′H-spiro[indene-2,5′-[1,3]oxazol]-4′-one]", "pKi hV1a": 9.5}
{"smiles": "CC1(C)OC2(CCN(C3=NC(=O)C4(Cc5ccccc5C4)O3)CC2)c2ccccc21", "note": "[Example 3, 2′-(3,3-dimethyl-1′H,3H-spiro[2-benzofuran-1,4′-piperidin]-1′-yl)-1,3-dihydro-4′H-spiro[indene-2,5′-[1,3]oxazol]-4′-one]", "pKi hV1a": 9.3}
{"smiles": "Cc1cccc2c1COC21CCN(C2=NC(=O)C3(Cc4ccccc4C3)O2)CC1", "note": "[Example 4]", "pKi hV1a": 8.2}
{"smiles": "Cc1cccc2c1C(=O)OC21CCN(C2=NC(=O)C3(Cc4ccccc4C3)O2)CC1", "note": "[Example 5, 4-methyl-1′-(4′-oxo-1,3-dihydro-4′H-spiro[indene-2,5′-[1,3]oxazol]-2′-yl)-3H-spiro[2-benzofuran-1,4′-piperidin]-3-one]", "pKi hV1a": 8.0}
{"smiles": "Cc1ccc2c(c1)C(=O)OC21CCN(C2=NC(=O)C3(Cc4ccccc4C3)O2)CC1", "note": "[Example 6, 5-methyl-1′-(4′-oxo-1,3-dihydro-4′H-spiro[indene-2,5′-[1,3]oxazol]-2′-yl)-3H-spiro[2-benzofuran-1,4′-piperidin]-3-one]", "pKi hV1a": 8.8}
{"smiles": "Cc1ccc2c(c1)C1(CCN(C3=NC(=O)C4(Cc5ccccc5C4)O3)CC1)OC2=O", "note": "[Example 7, 6-methyl-1′-(4′-oxo-1,3-dihydro-4′H-spiro[indene-2,5′-[1,3]oxazol]-2′-yl)-3H-spiro[2-benzofuran-1,4′-piperidin]-3-one]", "pKi hV1a": 8.8}
{"smiles": "COc1ccc2c(c1)C(=O)OC21CCN(C2=NC(=O)C3(Cc4ccccc4C3)O2)CC1", "note": "[Example 8, 5-methoxy-1′-(4′-oxo-1,3-dihydro-4′H-spiro[indene-2,5′-[1,3]oxazol]-2′-yl)-3H-spiro[2-benzofuran-1,4′-piperidin]-3-one]", "pKi hV1a": 8.5}
{"smiles": "O=C1OC2(CCN(C3=NC(=O)C4(Cc5ccccc5C4)O3)CC2)c2ccc(O)cc21", "note": "[Example 9, 5-hydroxy-1′-(4′-oxo-1,3-dihydro-4′H-spiro[indene-2,5′-[1,3]oxazol]-2′-yl)-3H-spiro[2-benzofuran-1,4′-piperidin]-3-one]", "pKi hV1a": 9.7}
{"smiles": "COc1ccc2c(c1)C1(CCN(C3=NC(=O)C4(Cc5ccccc5C4)O3)CC1)OC2=O", "note": "[Example 10, 6-methoxy-1′-(4′-oxo-1,3-dihydro-4′H-spiro[indene-2,5′-[1,3]oxazol]-2′-yl)-3H-spiro[2-benzofuran-1,4′-piperidin]-3-one]", "pKi hV1a": 8.6}
{"smiles": "COc1cc2c(cc1OC)C1(CCN(C3=NC(=O)C4(Cc5ccccc5C4)O3)CC1)OC2=O", "note": "[Example 12, 5,6-dimethoxy-1′-(4′-oxo-1,3-dihydro-4′H-spiro[indene-2,5′-[1,3]oxazol)-2′-yl)-3H-spiro[2-benzofuran-1,4′-piperidin]-3-one]", "pKi hV1a": 7.5}
{"smiles": "O=C1OC2(CCN(C3=NC(=O)C4(Cc5ccccc5C4)O3)CC2)c2cc(O)c(O)cc21", "note": "[Example 13, 5,6-dihydroxy-1′-(4′-oxo-1,3-dihydro-4′H-spiro[indene-2,5′-[1,3]oxazol]-2′-yl)-3H-spiro[2-benzofuran-1,4′-piperidin]-3-one]", "pKi hV1a": 8.2}
{"smiles": "O=C1OC2(CCN(C3=NC(=O)C4(Cc5ccccc5C4)O3)CC2)c2cccc(F)c21", "note": "[Example 14, 4-fluoro-1′-(4′-oxo-1,3-dihydro-4′H-spiro[indene-2,5′-[1,3]oxazol]-2′-yl)-3H-spiro[2-benzofuran-1,4′-piperidin]-3-one]", "pKi hV1a": 8.5}
{"smiles": "O=C1OC2(CCN(C3=NC(=O)C4(Cc5ccccc5C4)O3)CC2)c2ccc(F)cc21", "note": "[Example 15, 5-fluoro-1′-(4′-oxo-1,3-dihydro-4′H-spiro[indene-2,5′-[1,3]oxazol]-2′-yl)-3H-spiro[2-benzofuran-1,4′-piperidin]-3-one]", "pKi hV1a": 8.9}
{"smiles": "O=C1OC2(CCN(C3=NC(=O)C4(Cc5ccccc5C4)O3)CC2)c2c(F)cccc21", "note": "[Example 16, 7-fluoro-1′-(4′-oxo-1,3-dihydro-4′H-spiro[indene-2,5′-[1,3]oxazol]-2′-yl)-3H-spiro[2-benzofuran-1,4′-piperidin]-3-one]", "pKi hV1a": 8.7}
{"smiles": "O=C1OC2(CCN(C3=NC(=O)C4(Cc5ccccc5C4)O3)CC2)c2cc(Cl)ccc21", "note": "[Example 17, 6-chloro-1′-(4-oxo-1,3-dihydro-4′H-spiro[indene-2,5′-[1,3]oxazol]-2′-yl)-3H-spiro[2-benzofuran-1,4′-piperidin]-3-one]", "pKi hV1a": 8.6}
{"smiles": "O=C1OC2(CCN(C3=NC(=O)C4(Cc5ccccc5C4)O3)CC2)c2ccc(Br)cc21", "note": "[Example 18, 5-bromo-1′-(4′-oxo-1,3-dihydro-4′H-spiro[indene-2,5′-[1,3]oxazol]-2′-yl)-3H-spiro[2-benzofuran-1,4′-piperidin]-3-one]", "pKi hV1a": 8.4}
{"smiles": "O=C1N=C(N2CCC3(CC2)OCc2ccccc23)O[C@]12CCc1ccccc12", "note": "[Example 19, (−)-2′-(1H,3H-spiro[2-benzofuran-1,4′-piperidin]-1′-yl)-2,3-dihydro-4′H-spiro[indene-1,5′-[1,3]oxazol]-4′-one]", "pKi hV1a": 7.6}
{"smiles": "O=C1N=C(N2CCC3(CC2)OCc2ccccc23)O[C@@]12CCc1ccccc12", "note": "[Example 20, (+)-2′-(1′H,3H-spiro[2-benzofuran-1,4′-piperidin]-1′-yl)-2,3-dihydro-4′H-spiro[indene-1,5′-[1,3]oxazol]-4′-one]", "pKi hV1a": 6.6}
{"smiles": "Cc1ccc2c(c1)CC1(C2)OC(N2CCC3(CC2)OCc2ccccc23)=NC1=O", "note": "(stereo not shown) [Example 21, 5-methyl-2′-(1′H,3H-spiro[2-benzofuran-1,4′-piperidin]-1′-yl)-1,3-dihydro-4′H-spiro[indene-2,5′-[1,3]oxazol]-4′-one]", "pKi hV1a": 9.1}
{"smiles": "Cc1ccc2c(c1)CC1(C2)OC(N2CCC3(CC2)OC(=O)c2ccccc23)=NC1=O", "note": "(stereo not shown) [Example 22, 1′-(5-methyl-4′-oxo-1,3-dihydro-4′H-spiro[indene-2,5′-[1,3]oxazol]-2′-yl)-3H-spiro[2-benzofuran-1,4′-piperidin]-3-one]", "pKi hV1a": 8.9}
{"smiles": "Cc1ccc2c(c1)C[C@@]1(C2)OC(N2CCC3(CC2)OC(=O)c2ccccc23)=NC1=O", "note": "[Example 23, (+)-1′-[5-methyl-4′-oxo-1,3-dihydro-4′H-spiro[indene-2,5′-[1,3]oxazol]-2′-yl]-3H-spiro[2-benzofuran-1,4′-piperidin]-3-one]", "pKi hV1a": 7.3}
{"smiles": "Cc1cc2c(cc1C)CC1(C2)OC(N2CCC3(CC2)OCc2ccccc23)=NC1=O", "note": "[Example 25, 5,6-dimethyl-2′-(1′H,3H-spiro[2-benzofuran-1,4′-piperidin]-1′-yl)-1,3-dihydro-4′H-spiro[indene-2,5′-[1,3]oxazol]-4′-one]", "pKi hV1a": 7.1}
{"smiles": "Cc1cc2c(cc1C)CC1(C2)OC(N2CCC3(CC2)OC(=O)c2ccccc23)=NC1=O", "note": "[Example 26, 1′-(5,6-dimethyl-4′-oxo-1,3-dihydro-4′H-spiro[indene-2,5′-[1,3]oxazol)-2′-yl)-3H-spiro[2-benzofuran-1,4′-piperidin]-3-one]", "pKi hV1a": 6.4}
{"smiles": "COc1ccc2c(c1)CC1(C2)OC(N2CCC3(CC2)OC(=O)c2ccccc23)=NC1=O", "note": "(stereo not shown) [Example 27, 1′-(5-methoxy-4′-oxo-1,3-dihydro-4′H-spiro[indene-2,5′-[1,3]oxazol]-2′-yl)-3H-spiro[2-benzofuran-1,4′-piperidin]-3-one]", "pKi hV1a": 7.7}
{"smiles": "O=C1OC2(CCN(C3=NC(=O)C4(Cc5ccc(O)cc5C4)O3)CC2)c2ccccc21", "note": "(stereo not shown) [Example 28, 1′-(5-hydroxy-4′-oxo-1,3-dihydro-4′H-spiro[indene-2,5′-[1,3]oxazol]-2′-yl)-3H-spiro[2-benzofuran-1,4′-piperidin]-3-one]", "pKi hV1a": 8.4}
{"molecular_target": "human V1a receptor (Homo sapiens (Human), UniProt P37288)", "experiment": "human V1a receptor binding studies (3H-Vasopressin, SPA beads)", "conditions": "membranes of HEK293 cells transiently transfected with human V1a receptor, Ki by Cheng-Prusoff, read-out: pKi hV1a (converted)", "experimental": "as §1, §2", "units": {"Ki": "nM"}}
{"smiles": "O=C1OC2(CCN(C3=NC(=O)[C@]4(CCc5ccccc5C4)O3)CC2)c2ccccc21", "note": "(single isomer, unassigned; enantiomer a) [Example 66, 1′-[4′-oxo-3,4-dihydro-1H,4′H-spiro[naphthalene-2,5′-[1,3]oxazol]-2′-yl]-1′H,3H-spiro[2-benzofuran-1,4′-piperidin]-3-one enantiomer A]", "Ki": 0.794}
{"smiles": "O=C1OC2(CCN(C3=NC(=O)[C@@]4(CCc5ccccc5C4)O3)CC2)c2ccccc21", "note": "(single isomer, unassigned; enantiomer b) [Example 67, 1′-[4′-oxo-3,4-dihydro-1H,4′H-spiro[naphthalene-2,5′-[1,3]oxazol]-2′-yl]-1′H,3H-spiro[2-benzofuran-1,4′-piperidin]-3-one enantiomer B]", "Ki": 3.98}
